Source: the supplement of paper PMC10307832

Legend:
Experiment in all cases: relative viability (nuclei count vs DMSO), 5 days (fraction); higher = more cells survive
[1] = compound: COC1=CC=C(C=C1)COC2=C(C=C(C=C2)CC3=CN=C(N=C3N)N)OC [GW-2580] + C[C@]1(O)C[C@@H](c2nc(-c3ccc4ccc(-c5ccccc5)nc4c3)c3c(N)nccn32)C1 [Linsitinib] (partner 1 µM)
Method in brief: (§1)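 Relative viability equals treated-well nuclei counts divided by vehicle-well nuclei counts. Counts came from 4× images of lung cancer cell lines grown in 1536-well plates for 5 days after pin-tool dosing on the day after seeding. Dosing used one drug alone or a fixed anchor-drug dose plus five library-drug doses (not always all listed) in √10 steps, and values are medians of duplicate plates.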

[2] = compound: COC1=CC=C(C=C1)COC2=C(C=C(C=C2)CC3=CN=C(N=C3N)N)OC [GW-2580] + Cc1nc(NC(=O)N2CCC[C@H]2C(N)=O)sc1-c1ccnc(C(C)(C)C(F)(F)F)c1 [Alpelisib] (partner 2 µM)
Method in brief: as §1

[3] = compound: COC1=CC=C(C=C1)COC2=C(C=C(C=C2)CC3=CN=C(N=C3N)N)OC [GW-2580] + Cc1nc(Nc2ncc(C(=O)Nc3c(C)cccc3Cl)s2)cc(N2CCN(CCO)CC2)n1 [Dasatinib] (partner 0.075 µM)
Method in brief: as §1

[4] = compound: COC1=CC=C(C=C1)COC2=C(C=C(C=C2)CC3=CN=C(N=C3N)N)OC [GW-2580] + Nc1nc2[nH]cc(CCc3ccc(C(=O)N[C@@H](CCC(=O)O)C(=O)O)cc3)c2c(=O)[nH]1 [Pemetrexed] (partner 0.2 µM)
Method in brief: as §1

[5] = compound: Cc1cnc(Nc2ccc(OCCN3CCCC3)cc2)nc1Nc1cccc(S(=O)(=O)NC(C)(C)C)c1 [Fedratinib] + CS(=O)(=O)CCNCc1ccc(-c2ccc3ncnc(Nc4ccc(OCc5cccc(F)c5)c(Cl)c4)c3c2)o1 [Lapatinib] (partner 2 µM)
Method in brief: as §1

Cell Line | relative viability ([1]; first compound 0.08 µM) | relative viability ([1]; first compound 2.53 µM) | relative viability ([1]; first compound 8 µM) | relative viability ([2]; first compound 0.08 µM) | relative viability ([2]; first compound 2.53 µM) | relative viability ([2]; first compound 8 µM) | relative viability ([3]; first compound 0.08 µM) | relative viability ([3]; first compound 0.8 µM) | relative viability ([3]; first compound 2.53 µM) | relative viability ([3]; first compound 8 µM) | relative viability ([4]; first compound 0.08 µM) | relative viability ([4]; first compound 0.8 µM) | relative viability ([4]; first compound 2.53 µM) | relative viability ([4]; first compound 8 µM) | relative viability ([5]; first compound 0.1 µM) | relative viability ([5]; first compound 0.3162 µM) | relative viability ([5]; first compound 1 µM) | relative viability ([1]; first compound 0.8 µM) | relative viability ([2]; first compound 0.8 µM)
LCLC-97TM1 | 0.207 | 0.164 | 0.177 | 0.233 | 0.189 | 0.226 | 0.891 | 0.866 | 0.899 | 0.821 | 0.158 | 0.143 | 0.179 | 0.172 | 1.14 | 0.711 | 0.938 | – | –
EPLC-272H | 1.05 | 1.24 | 1.14 | 0.996 | 0.904 | 0.98 | 0.353 | 0.385 | – | 0.283 | 0.325 | 0.283 | 0.342 | 0.329 | 0.958 | 1.01 | 0.119 | 1.38 | 1.08
NCI-H1915 | 1.2 | 1.1 | 1.11 | 1.06 | 1.09 | 1.02 | 0.356 | 0.295 | 0.272 | 0.273 | 0.519 | 0.53 | 0.509 | 0.486 | 0.891 | 0.985 | 0.662 | 1.13 | 1.12
NCI-H2405 | 0.979 | 0.886 | 0.861 | 0.794 | 0.751 | 0.751 | 0.203 | 0.205 | 0.222 | 0.213 | 1.04 | 1.2 | 1.02 | 0.799 | 0.91 | 1.07 | 0.753 | 0.85 | 0.718
NCI-H322M | 1.01 | 0.857 | 1.05 | 0.833 | 0.855 | 0.795 | 0.247 | 0.24 | 0.263 | 0.253 | 0.582 | 0.626 | 0.676 | 0.567 | 0.608 | 0.615 | 0.523 | 0.958 | 0.912
NCI-H1395 | 1.07 | 0.97 | 0.931 | 1.04 | 1.03 | 1.01 | 0.41 | 0.409 | 0.401 | 0.427 | 0.9 | 0.986 | 0.863 | 0.88 | 0.911 | 1.11 | 0.786 | 1.08 | 0.941
NCI-H358 | 0.888 | 0.707 | 0.684 | 0.967 | 0.851 | 0.775 | 0.173 | 0.199 | 0.159 | 0.115 | 0.171 | 0.186 | 0.166 | 0.178 | 0.366 | 0.369 | 0.334 | 0.849 | 0.872
NCI-H838 | 1.14 | 1.01 | 1.06 | 1.01 | 1.15 | 1.07 | 0.295 | 0.344 | 0.241 | 0.316 | 0.268 | 0.262 | 0.234 | 0.266 | 0.875 | 1.02 | 0.205 | 1.19 | 1.06
CAL-12T | 0.985 | 0.917 | 0.762 | 1.45 | 1.19 | 1.06 | 0.485 | 0.443 | 0.438 | 0.505 | 1.32 | 1.53 | 1.24 | 1.13 | 0.688 | 0.698 | 0.607 | 0.815 | –
